± gives the expanded uncertainty stated by the source.
Columns and labels:
[1] = 101.33 kPa, Liquid
[2] = refractive index (Na D-line) (dimensionless); conditions: 293.15 K; 101.33 kPa; Liquid; Standard Abbe refractometry

Row | Compound | mass density ([1]; 298.15 K) [kg/m3] | refractive index [2] | mass density ([1]; 293.15 K) [kg/m3]
1 | CC(=O)OC(C)C [1-methylethyl ethanoate] | 866.4 ± 0.5 | 1.3751 ± 0.0007 | –
2 | CCOC(=O)OCC [diethyl carbonate] | 969.2 ± 0.3 | 1.383 ± 0.0007 | –
3 | CCO [ethanol] | – | 1.3592 ± 0.0007 | 789.4 ± 0.6
4 | CCCC(=O)OCC [ethyl butanoate] | – | 1.3899 ± 0.0007 | 879 ± 0.5

Source: the NIST ThermoML archive (doi:10.1016/j.fluid.2005.05.018)
